The test relates to HSV-2. It counts as cell-based, herpes simplex virus type 2 (HSV-2). To be noted: ELVIS cell infection assay; virus not given.

Where no end group is shown, it is not given here.

Turning to “VCVLAHHFGKEF [VCVLAHHFGKEF (SEQ ID NO:2)]”, the “antiviral activity in cellular infection assay” value is reported as “high activity”.

The values are drawn from patent US7741287B2, “Peptides for the treatment of herpes virus infections” (IPF PharmaCeuticals GmbH, priority 2004, dated 2010).
